Test results published in patent US20250017940A1, “SELECTIVE PEPTIDOMIMETIC MODULATORS OF CAV2.2 (N-TYPE) VOLTAGE-GATED CALCIUM CHANNELS AND USES THEREOF” (New York University, priority 2023, published 2025).

Legend:
[1] = test system: rat model of spared nerve injury (SNI); assay: Spared nerve injury (SNI) model, mechanical allodynia (von Frey paw withdrawal threshold); assay type: in vivo
Protocol: Rats were anesthetized with ketamine/xylazine 80/12 mg/kg intraperitoneally (i.p.) (Sigma-Aldrich, St. Louis, MO), and their head was placed in a stereotaxic frame. The cisterna magna was exposed and incised. As previously reported, an 8-cm catheter (PE-10; Stoelting, Wood Dale, IL) was implanted, terminating in the lumbar region of the spinal cord (Yaksh & Rudy, 1976). Catheters were sutured (using 3-0 silk sutures) into the deep muscle and externalized at the back of the neck. Autoclips were used to close the skin, and other surgeries were performed after a 5- to 7-day recovery period.
The neuropathic pain model induced by spared nerve injury (SNI) in rats was performed as previously described. Adult male rats (250 g, Envigo, Placentia, CA) were anesthetized with isoflurane (5% induction, 2% maintenance in 2 L/min air), and skin on the lateral surface of the left hind thigh was incised. Then, the biceps femoris muscle was dissected to expose the three terminal branches of the sciatic nerve. The common peroneal and tibial branches were tightly ligated with 4-0 silk and axotomized 2.0 mm distal to the ligation. Closure of the incision was made in two layers. The muscle was sutured once with 5-0 absorbable suture; skin was autoclipped. Animals were allowed to recover for 7 days before any testing. […]
Mechanical allodynia was assessed by measuring rats' paw withdrawal threshold in response to probing with a series of fine calibrated filaments (von Frey, Stoelting, Wood Dale, IL). Rats were placed in suspended plastic cages with wire mesh floor, and each von Frey filament was applied perpendicularly to the plantar surface of the paw. The “up-and-down” method (sequential increase and decrease of the stimulus strength) was used to determine the withdrawal threshold Dixon's nonparametric method was used for data analysis, as described by Chaplan et al., 1994. Data were expressed as the mean withdrawal threshold.

[2] = test system: Cav3 (T-type) calcium channels; assay: Whole-cell patch-clamp, isolated T-type Ca2+ currents in DRG neurons; assay type: cell-based, rat
Protocol: Recordings were obtained from acutely dissociated DRG neurons as described earlier (Bellampalli et al., 2019). Patch-clamp recordings were performed at room temperature (22-24° C.). Currents were recorded using an EPC 10 Amplifier-HEKA (HEKA Elektronik, Ludwigshafen, Germany) linked to a computer with Patchmaster software. DRG neurons were incubated overnight (˜16-24 hours) with 20 μM of CBD3063.
For total calcium current (ICa^2+) recordings, the external solution consisted of the following (in mM): 110 N-methyl-D-glucamine, 10 BaCl2, 30 TEA-Cl, 10 HEPES, 10 glucose, and 0.001 TTX (pH 7.29 adjusted with TEA-OH, and mOsm/L=310). Patch pipettes were filled with an internal solution containing (in mM): 150 CsCl2, 10 HEPES, 5 Mg-ATP, and 5 BAPTA, (pH 7.2 adjusted with CsOH, and mOsm/L-305). Peak Ca^2+ current was acquired by applying 200-millisecond voltage steps from −70 to +60 mV in 10-mV increments from a holding potential of −90 mV to obtain the current-voltage (I-V) relation. To measure the different subtypes of Ca^2+ channels, DRGs were treated with a Cav inhibitor cocktail omitting the inhibitor specific to the subtype being tested (e.g., to measure Cav2.2 currents, ω-conotoxin GVIA is omitted): Nifedipine (10 μM, L-type), ω-Conotoxin-GVIA (500 nM, […]) (Feng, et al., 2001), SNX482 (200 nM, R-type) (Newcomb et al., 1998), ω-agatoxin (200 nM, P/Q-type) (Mintz et al., 1992), TTA-P2 (1 μM, T-type) (Choe et al., 2011).
Normalization of currents to each cell's capacitance (pF) was performed to allow for collection of current density data. For I-V curves, functions were fitted to data using a non-linear least squares analysis. I-V curves were fitted using double Boltzmann functions:
where x is the pre-pulse potential, V1/2 is the mid-point potential, and k is the corresponding slope factor for single Boltzmann functions. Double Boltzmann fits were used to describe the shape of the curve, not to imply the existence of separate channel populations. Numbers 1 and 2 simply indicate first and second mid-points; a along with g are fitting parameters.
Activation curves were obtained from the I-V curves by dividing the peak current at each depolarizing step by the driving force according to the equation: G=I/(Vmem-Erev), where I is the peak current, Vmem is the membrane potential and Erev is the reversal potential. The conductance (G) was normalized against the maximum conductance (Gmax). For total and the different subtypes of Ca^2+ currents, steady-state inactivation (SSI) curves were obtained by applying an H-infinity protocol that consisted of 1.5-seconds conditioning pre-pulses from −100 to +30 mV in 10-mV increments followed by a 20-millisecond test pulse to +10 mV. For Na^+ currents, SSI curves were obtained by applying an H-infinity protocol that consisted of 1-second conditioning pre-pulses from −120 to +10 mV in 10-mV increments followed by a 200-millisecond test pulse to +10 mV. Inactivation curves were obtained by dividing the peak current recorded at the test pulse by the maximum current (Imax). Activation and SSI curves were fitted with the Boltzmann equation.

[3] = single intrathecal 0.3 μg/kg, 7 days after SNI, male rats
[4] = 20 μM overnight, mean ± SEM (n cells)

CC(=O)N[C@@H]1CCCN(C(=O)NCCCNc2ccccn2)C1 [CBD3063, (3R)-3-acetamido-N-[3-(pyridin-2-ylamino)propyl]piperidine-1-carboxamide]
tolerance (loss of antinociception) ([1]; repeated i.t. 0.3 μg/kg once a day for 14 days): without any tolerance
duration of reversal of mechanical allodynia with repeated intrathecal dosage ([1]; repeated i.t. 0.3 μg/kg, rats with chronic neuropathic pain): > 14 days
area under the curve of paw withdrawal threshold ([1]; repeated i.t. injection 0.3 μg/kg once a day for 14 days (DMSO: 3.37±0.86)): 47.26±8.22
area under the curve of paw withdrawal threshold ([1]; single i.t. injection 0.3 μg/kg, 0.5 to 36 hours (DMSO: 7.650±0.84)): 57.05±3.84
duration of reversal of mechanical allodynia [1, 3]: up to 36 hours
start of reversal of mechanical allodynia post-injection [1, 3]: 60 min
effect on Ca2+ influx through Cav3 (T-type) channels (current density-voltage curve, peak current density) ([2]; 20 μM overnight vs 0.1% DMSO): does not alter
T-type Ca2+ currents, activation V1/2 [2, 4]: −10.982 ± 1.992 (10) mV
T-type Ca2+ currents, activation k (slope factor) [2, 4]: 9.924 ± 1.628 (10)
T-type Ca2+ currents, inactivation V1/2 [2, 4]: −35.122 ± 2.752 (10) mV
T-type Ca2+ currents, inactivation k (slope factor) [2, 4]: −12.929 ± 2.490 (10)
